How the values were obtained:
[1] = tested on: HCV replicon (Genotype 1b); assay: Luciferase genotype 1b replicon potency assay; details: Hepatitis C virus, GETYPE1B, read-out: IC50 μM, HCV genotype 1b luciferase replicon, Renilla luciferase reporter
[2] = in vitro; details: human

| SMILES | IC50 [1] [µM] | CC50 [2] [µM] |
| --- | --- | --- |
| CCOc1nc(N)nc2c1ncn2C1O[C@H](COP(=O)(N[C@@H](C)C(=O)O[C@@H](C)c2ccccc2)Oc2cccc3ccccc23)[C@@H](O)[C@@]1(C)O (stereo partly drawn) [Example 75, (2S)-((S)-1-phenylethyl) 2-((((2R,3R,4R)-5-(2-amino-6-ethoxy-9H-purin-9-yl)-3,4-dihydroxy-4-methyltetrahydrofuran-2-yl)methoxy)(naphthalen-1-yloxy)phosphorylamino)propanoate] | 0.063 | 12 |
| COc1nc(N)nc2c1ncn2C1O[C@H](COP(=O)(N[C@@H](C)C(=O)OCC(C)(C)C)Oc2cccc3ncccc23)[C@@H](O)[C@@]1(C)O (stereo partly drawn) [Example 31, (2S)-neopentyl 2-((((2R,3R,4R)-5-(2-amino-6-methoxy-9H-purin-9-yl)-3,4-dihydroxy-4-methyltetrahydrofuran-2-yl)methoxy)(quinolin-5-yloxy)phosphorylamino)propanoate] | 0.19 | > 100 |
| COc1nc(N)nc2c1ncn2C1O[C@H](COP(=O)(N[C@@H](CCSC)C(=O)OCC(C)(C)C)Oc2cccc3ccccc23)[C@@H](O)[C@@]1(C)O (stereo partly shown) [Example 60] | 0.06 | 28 |
| COc1nc(N)nc2c1ncn2C1O[C@H](COP(=O)(N[C@H](C(=O)OC2CCC2)C(C)C)Oc2cccc3ccccc23)[C@@H](O)[C@@]1(C)O (stereo partly drawn) [Example 44, (2S)-cyclobutyl 2-((((2R,3R,4R)-5-(2-amino-6-methoxy-9H-purin-9-yl)-3,4-dihydroxy-4-methyltetrahydrofuran-2-yl)methoxy)(naphthalen-1-yloxy)phosphorylamino)-3-methylbutanoate] | 0.39 | 64 |
| COc1nc(N)nc2c1ncn2C1O[C@H](COP(=O)(N[C@@H](C)C(=O)OC2CCCCC2)Oc2cccc3ccccc23)[C@@H](O)[C@@]1(C)O (stereo partly drawn) [Example 25, (2S)-cyclohexyl 2-((((2R,3R,4R)-5-(2-amino-6-methoxy-9H-purin-9-yl)-3,4-dihydroxy-4-methyltetrahydrofuran-2-yl)methoxy)(naphthalen-1-yloxy)phosphorylamino)propanoate] | 0.014 | 6 |
| CCOc1nc(N)nc2c1ncn2C1O[C@H](COP(=O)(N[C@@H](C)C(=O)OCC(C)(C)C)Oc2cccc3ccccc23)[C@@H](O)[C@@]1(C)O (stereo partly shown) [Example 76] | 0.01 | 10 |
| COc1nc(N)nc2c1ncn2C1O[C@H](COP(=O)(N[C@@H](C)C(=O)OC2CCCCC2)Oc2cccc3ccccc23)C[C@@]1(C)O (stereo partly drawn) [Example 98, (2S)-cyclohexyl 2-((((2S,4R)-5-(2-amino-6-methoxy-9H-purin-9-yl)-4-hydroxy-4-methyltetrahydrofuran-2-yl)methoxy)(naphthalen-1-yloxy)phosphorylamino)propanoate] | > 10 | 20 |
| CNc1nc(N)nc2c1ncn2C1O[C@H](COP(=O)(N[C@@H](C)C(=O)O[C@@H](C)c2ccccc2)Oc2cccc3ccccc23)[C@@H](O)[C@@]1(C)O (stereo partly drawn) [Example 82, (2S)-((S)-1-phenylethyl) 2-((((2R,3R,4R)-5-(2-amino-6-(methylamino)-9H -purin-9-yl)-3,4-dihydroxy-4-methyltetrahydrofuran-2-yl)methoxy) (naphthalen-1-yloxy)phosphorylamino)propanoate] | 0.11 | 54 |
| COc1nc(N)nc2c1ncn2C1O[C@H](COP(=O)(N[C@H](C)C(=O)OCC(C)(C)C)Oc2cccc3ccccc23)[C@@H](O)[C@@]1(C)O (stereo partly shown) [Example 57] | 0.24 | 51 |
| COC(=O)[C@@H](C)c1ccc2cc(OP(=O)(N[C@@H](C)C(=O)OC3CCOCC3)OC[C@H]3OC(n4cnc5c(OC)nc(N)nc54)[C@](C)(O)[C@@H]3O)ccc2c1 (stereo partly drawn) [Example 29, (2S)-methyl 2-(6-((((2R,3R,4R)-5-(2-amino-6-methoxy-9H-purin-9-yl)-3,4-dihydroxy-4-methyltetrahydrofuran-2-yl)methoxy)((S)-1-oxo-1-(tetrahydro-2H-pyran-4-yloxy)propan-2-ylamino)phosphoryloxy)naphthalen-2-yl)propanoate] | 0.11 | > 100 |
| COC(=O)[C@@H](C)c1ccc2cc(OP(=O)(N[C@@H](C)C(=O)OCc3ccc(F)cc3F)OC[C@H]3OC(n4cnc5c(OC)nc(N)nc54)[C@](C)(O)[C@@H]3O)ccc2c1 (stereo partly drawn) [Example 27, (2S)-2,4-difluorobenzyl 2-((((2R,3R,4R)-5-(2-amino-6-methoxy-9H-purin-9-yl)-3,4-dihydroxy-4-methyltetrahydrofuran-2-yl)methoxy)(6-((S)-1-methoxy-1-oxopropan-2-yl)naphthalen-2-yloxy)phosphorylamino)propanoate] | 0.055 | 28 |
| COc1nc(N)nc2c1ncn2C1O[C@H](COP(=O)(N[C@H](C(=O)O[C@@H](C)c2ccccc2Br)C(C)C)Oc2cccc3ccccc23)[C@@H](O)[C@@]1(C)O (stereo partly drawn) [Example 40, (2S)-((S)-1-(2-bromophenyl)ethyl) 2-((((2R,3R,4R)-5-(2-amino-6-methoxy-9H-purin-9-yl)-3,4-dihydroxy-4-methyltetrahydrofuran-2-yl)methoxy)(naphthalen-1-yloxy)phosphorylamino)-3-methylbutanoate] | 2.9 | 44 |
| COc1nc(N)nc2c1ncn2C1O[C@H](COP(=O)(N[C@@H](C)C(=O)OCc2ccc(F)cc2F)Oc2cccc3ncccc23)[C@@H](O)[C@@]1(C)O (stereo partly drawn) [Example 30, (2S)-2,4-difluorobenzyl 2-((((2R,3R,4R)-5-(2-amino-6-methoxy-9H-purin-9-yl)-3,4-dihydroxy-4-methyltetrahydrofuran-2-yl)methoxy)(quinolin-5-yloxy)phosphorylamino)propanoate] | 0.13 | 110 |
| COc1nc(N)nc2c1ncn2C1O[C@H](COP(=O)(N[C@H](C(=O)OCc2ccc(F)cc2F)C(C)C)Oc2ccc3ncccc3c2)[C@@H](O)[C@@]1(C)O (stereo partly drawn) [Example 51, (2S)-2,4-difluorobenzyl 2-((((2R,3R,4R)-5-(2-amino-6-methoxy-9H-purin-9-yl)-3,4-dihydroxy-4-methyltetrahydrofuran-2-yl)methoxy)(quinolin-6-yloxy)phosphorylamino)-3-methylbutanoate] | 0.11 | > 100 |
| COc1nc(N)nc2c1ncn2C1O[C@H](COP(=O)(N[C@@H](C)C(=O)O[C@@H](C)c2ccccc2)Oc2cccc3ccccc23)C[C@@]1(C)O (stereo partly drawn) [Example 96, (2S)-((S)-1-phenylethyl) 2-((((2S,4R)-5-(2-amino-6-methoxy-9H-purin-9-yl)-4-hydroxy-4-methyltetrahydrofuran-2-yl)methoxy)(naphthalen-1-yloxy)phosphorylamino)propanoate] | > 10 | 20 |
| COc1nc(N)nc2c1ncn2C1O[C@H](CO[P@@](=O)(N[C@@H](C)C(=O)OCC(C)(C)C)Oc2cccc3ccccc23)[C@@H](O)[C@@]1(C)O (stereo partly shown) [Example 21] | 0.043 | 13 |
| COc1nc(N)nc2c1ncn2C1O[C@H](COP(=O)(N[C@@H](C(=O)OC2CCCCC2)c2ccccc2)Oc2cccc3ccccc23)[C@@H](O)[C@@]1(C)O (stereo partly drawn) [Example 71, (2R)-cyclohexyl 2-((((2R,3R,4R)-5-(2-amino-6-methoxy-9H-purin-9-yl)-3,4-dihydroxy-4-methyltetrahydrofuran-2-yl)methoxy)(naphthalen-1-yloxy)phosphorylamino)-2-phenylacetate] | 2.5 | 26 |
| COc1nc(N)nc2c1ncn2C1O[C@H](COP(=O)(N[C@H](C(=O)OCC(C)(C)C)C(C)C)Oc2cccc3cccnc23)[C@@H](O)[C@@]1(C)O (stereo partly drawn) [Example 53, (2S)-neopentyl 2-((((2R,3R,4R)-5-(2-amino-6-methoxy-9H-purin-9-yl)-3,4-dihydroxy-4-methyltetrahydrofuran-2-yl)methoxy)(quinolin-8-yloxy)phosphorylamino)-3-methylbutanoate] | 0.88 | > 100 |
| COc1nc(N)nc2c1ncn2C1O[C@H](COP(=O)(N[C@H](C(=O)OCC2CC2)C(C)C)Oc2cccc3ccccc23)[C@@H](O)[C@@]1(C)O (stereo partly drawn) [Example 43, (2S)-cyclopropylmethyl 2-((((2R,3R,4R)-5-(2-amino-6-methoxy-9H-purin-9-yl)-3,4-dihydroxy-4-methyltetrahydrofuran-2-yl)methoxy) (naphthalen-1-yloxy)phosphorylamino)-3-methylbutanoate] | 0.18 | 6 |
| C[C@H](NP(=O)(OC[C@H]1OC(n2cnc3c(NCCc4ccccc4)nc(N)nc32)[C@](C)(O)[C@@H]1O)Oc1cccc2ccccc12)C(=O)OCC(C)(C)C (stereo partly drawn) [Example 87, (2S)-neopentyl 2-((((2R,3R,4R)-5-(2-amino-6-(phenethylamino)-9H-purin-9-yl)-3,4-dihydroxy-4-methyltetrahydrofuran-2-yl)methoxy)(naphthalen-1-yloxy)phosphorylamino)propanoate] | 0.27 | 42 |
| CCCOC(=O)[C@H](C)NP(=O)(OC[C@H]1OC(n2cnc3c(OC)nc(N)nc32)[C@](C)(O)[C@@H]1O)Oc1cccc2ccccc12 (stereo partly drawn) [Example 17, (2S)-propyl 2-((((2R,3R,4R)-5-(2-amino-6-methoxy-9H-purin-9-yl)-3,4-dihydroxy-4-methyltetrahydrofuran-2-yl)methoxy)(naphthalen-1-yloxy)phosphorylamino)propanoate] | 0.029 | 12 |
| COc1nc(N)nc2c1ncn2C1O[C@H](COP(=O)(N[C@H](C(=O)OC2CCCCC2)C(C)C)Oc2cccc3ccccc23)[C@@H](O)[C@@]1(C)O (stereo partly shown) [Example 46] | 0.42 | 24 |
| COc1nc(N)nc2c1ncn2C1O[C@H](COP(=O)(N[C@@H](C)C(=O)OCC(C)(C)C)Oc2ccc3ncccc3c2)[C@@H](O)[C@@]1(C)O (stereo partly drawn) [Example 33, (2S)-neopentyl 2-((((2R,3R,4R)-5-(2-amino-6-methoxy-9H-purin-9-yl)-3,4-dihydroxy-4-methyltetrahydrofuran-2-yl)methoxy)(quinolin-6-yloxy)phosphorylamino)propanoate] | 0.26 | > 100 |

Source: patent publication US8759318B2, “Phosphoramidate derivatives of guanosine nucleoside compounds for treatment of viral infections” (Inhibitex, Inc., priority 2009, dated 2014)
